{"source": "patent US20130071340A1", "about": "“POLYOL PARTIAL ESTERS FOR USE IN COSMETICS” (priority 2010, published 2013)", "key": {"[1]": {"assay": "UV filter solubility in the emollients", "assay_type": "physicochemical", "settings": "maximum soluble amount of ethylhexyl triazone (Uvinul T 150) in the emollient at 22 °C", "description": "This operation was repeated until the maximum soluble amount of the UV filter was exceeded. At higher concentrations, often a longer stirring time of several hours is necessary for complete dissolution. When in this way the maximum concentration had been determined approximately, for fine determination the concentration range was repeated around this maximum concentration with smaller initial weighed amounts of the UV filter."}}, "note": "Like-named read-outs stand apart in the source and are kept apart here.", "data": [{"molecule": "CCCCCCCC(=O)OCC(O)CO", "note": "(centres unmarked) [Glyceryl monocaprylate]", "values": [{"measurement": "Solubility in wt % in the test emollients", "setting": "test emollient: Isohexadecane", "value": "at 75% solid,"}, {"measurement": "Solubility in wt % in the test emollients", "setting": "test emollient: Mineral oil", "value": "<5", "unit": "% wt %"}, {"measurement": "Solubility in wt % in the test emollients", "setting": "test emollient: Octyldodecanol", "value": "at 75% solid,"}, {"measurement": "Solubility in wt % in the test emollients", "setting": "test emollient: Oleyl erucate", "value": "<50", "unit": "% wt %"}]}, {"molecule": "PPG-15 stearyl ether", "values": [{"measurement": "UV filter solubility: Ethylhexyl triazone", "setting": "[1]", "value": 7.0, "unit": "%"}]}]}
